Test results: the supplement of paper PMC13380429

Tests used:
A549-ACE2 [1] = assay: drug-induced phospholipidosis relative to tamoxifen; higher = more phospholipidosis
[2] = tested on: A549-ACE2 infected with SARS-CoV-2; assay: cell count relative to DMSO; higher = less toxic; conditions: 24 h
A549-ACE2 [3] = assay: phospholipidosis EC50; higher = less potent phospholipidosis inducer
Vero E6 [4] = assay: relative viability EC50 (midpoint between 100% and the lowest measured viability); higher = less toxic; conditions: 72 h
Calu-3 [5] = assay: as above; conditions: 72 h
Caco-2 [6] = assay: as above; conditions: 72 h
U2OS [7] = assay: as above; conditions: 72 h
[8] = tested on: A549-ACE2 infected with SARS-CoV-2; assay: morphology score (similarity to uninfected cells); higher = more like uninfected cells; conditions: 24 h
HepG2 [9] = assay: drug sensitivity score (DSS) for viability; higher = more toxic; extreme values may be limits of the assay; conditions: 72 h
Vero E6 [10] = assay: as above; conditions: 72 h
Calu-3 [11] = assay: as above; conditions: 72 h
Caco-2 [12] = assay: as above; conditions: 72 h
U2OS [13] = assay: as above; conditions: 72 h
HepG2 [14] = assay: cell viability relative to DMSO; higher = less toxic; conditions: 72 h
Vero E6 [15] = assay: as above; conditions: 72 h
Calu-3 [16] = assay: as above; conditions: 72 h
Caco-2 [17] = assay: as above; conditions: 72 h
U2OS [18] = assay: as above; conditions: 72 h
[19] = tested on: A549-ACE2 infected with SARS-CoV-2; assay: SARS-CoV-2 infection rate relative to DMSO; higher = more infection; conditions: 24 h
HepG2 [20] = assay: relative viability EC50 (midpoint between 100% and the lowest measured viability); higher = less toxic; conditions: 72 h

C[C@@H]1CN(CC(=O)Nc2ccc3c(c2)Cc2cccc(-c4cc(=O)cc(N5CCOCC5)o4)c2S3)C[C@H](C)O1
drug-induced phospholipidosis [%], A549-ACE2 [1]
Conditions	0.3 µM	0.833333 µM	3.33333 µM	6.66667 µM	10 µM	30 µM
24 h	-1.06	-2.12	-2.36	1.18	7.55	66.8
48 h	-1.36	-2.9	-1.74	0	6.05	52.4
72 h	-1.2	-4.15	-2.75	0.476	6.88	56.1

Conditions	SARS-CoV-2 infection rate [%]	cell count [%]	cell viability [%]	morphology score	phospholipidosis EC50 [µM]
A549-ACE2 [3], 72 h	–	–	–	–	20
Caco-2 [17], 1 nM	–	–	97.2	–	–
Caco-2 [17], 10 nM	–	–	103	–	–
Caco-2 [17], 100 nM	–	–	101	–	–
Caco-2 [17], 1000 nM	–	–	103	–	–
Caco-2 [17], 10000 nM	–	–	47.3	–	–
Calu-3 [16], 1 nM	–	–	99.4	–	–
Calu-3 [16], 10 nM	–	–	104	–	–
Calu-3 [16], 100 nM	–	–	99.4	–	–
Calu-3 [16], 1000 nM	–	–	105	–	–
Calu-3 [16], 10000 nM	–	–	99.3	–	–
HepG2 [14], 1 nM	–	–	105	–	–
HepG2 [14], 10 nM	–	–	101	–	–
HepG2 [14], 100 nM	–	–	97.8	–	–
HepG2 [14], 1000 nM	–	–	96	–	–
HepG2 [14], 10000 nM	–	–	54.3	–	–
U2OS [18], 1 nM	–	–	102	–	–
U2OS [18], 10 nM	–	–	104	–	–
U2OS [18], 100 nM	–	–	95.7	–	–
U2OS [18], 1000 nM	–	–	98.7	–	–
U2OS [18], 10000 nM	–	–	89.6	–	–
Vero E6 [15], 1 nM	–	–	103	–	–
Vero E6 [15], 10 nM	–	–	99.2	–	–
Vero E6 [15], 100 nM	–	–	103	–	–
Vero E6 [15], 1000 nM	–	–	104	–	–
Vero E6 [15], 10000 nM	–	–	80.9	–	–
[2], 0.3 µM	–	115	–	–	–
[2], 3 µM	–	103	–	–	–
[2], 10 µM	–	113	–	–	–
[2], 30 µM	–	104	–	–	–
[8], 0.3 µM	–	–	–	0.15	–
[8], 3 µM	–	–	–	0.09	–
[8], 10 µM	–	–	–	0.57	–
[8], 30 µM	–	–	–	0.45	–
[19], 0.3 µM	108	–	–	–	–
[19], 3 µM	98	–	–	–	–
[19], 10 µM	62	–	–	–	–
[19], 30 µM	68	–	–	–	–

Conditions	drug sensitivity score	relative viability EC50 [µM]
Caco-2 [6]	–	3.48
Caco-2 [12]	2.5	–
Calu-3 [5]	–	> 10
Calu-3 [11]	0	–
HepG2 [9]	3	–
U2OS [7]	–	> 10
U2OS [13]	0	–
Vero E6 [4]	–	> 10
Vero E6 [10]	0.4	–

Cc1cc(CN)cc(C)c1NC(=O)c1ccc(-c2cc(Cl)ccc2Cl)o1
drug-induced phospholipidosis [%], A549-ACE2 [1]
Conditions	0.3 µM	0.833333 µM	3.33333 µM	6.66667 µM	10 µM
24 h	2.63	5.94	68	88.7	90.2
48 h	3.74	4.56	48.1	81.5	90.1
72 h	1.91	1.3	32.6	66.3	78.5

Conditions	SARS-CoV-2 infection rate [%]	cell count [%]	cell viability [%]	morphology score	phospholipidosis EC50 [µM]
A549-ACE2 [3], 24 h	–	–	–	–	2.39
A549-ACE2 [3], 48 h	–	–	–	–	3.42
A549-ACE2 [3], 72 h	–	–	–	–	4.24
Caco-2 [17], 1 nM	–	–	105	–	–
Caco-2 [17], 10 nM	–	–	101	–	–
Caco-2 [17], 100 nM	–	–	98.1	–	–
Caco-2 [17], 1000 nM	–	–	102	–	–
Caco-2 [17], 10000 nM	–	–	79.1	–	–
Calu-3 [16], 1 nM	–	–	104	–	–
Calu-3 [16], 10 nM	–	–	101	–	–
Calu-3 [16], 100 nM	–	–	104	–	–
Calu-3 [16], 1000 nM	–	–	102	–	–
Calu-3 [16], 10000 nM	–	–	60.1	–	–
HepG2 [14], 1 nM	–	–	106	–	–
HepG2 [14], 10 nM	–	–	103	–	–
HepG2 [14], 100 nM	–	–	97.8	–	–
HepG2 [14], 1000 nM	–	–	107	–	–
HepG2 [14], 10000 nM	–	–	66.7	–	–
U2OS [18], 1 nM	–	–	98	–	–
U2OS [18], 10 nM	–	–	102	–	–
U2OS [18], 100 nM	–	–	98.5	–	–
U2OS [18], 1000 nM	–	–	101	–	–
U2OS [18], 10000 nM	–	–	83.1	–	–
Vero E6 [15], 1 nM	–	–	103	–	–
Vero E6 [15], 10 nM	–	–	97.5	–	–
Vero E6 [15], 100 nM	–	–	105	–	–
Vero E6 [15], 1000 nM	–	–	96.6	–	–
Vero E6 [15], 10000 nM	–	–	96.8	–	–
[2], 0.3 µM	–	101	–	–	–
[2], 3 µM	–	120	–	–	–
[2], 10 µM	–	120	–	–	–
[2], 30 µM	–	1	–	–	–
[8], 0.3 µM	–	–	–	0.02	–
[8], 3 µM	–	–	–	0.84	–
[8], 10 µM	–	–	–	0.68	–
[8], 30 µM	–	–	–	-0.13	–
[19], 0.3 µM	101	–	–	–	–
[19], 3 µM	34	–	–	–	–
[19], 10 µM	10	–	–	–	–
[19], 30 µM	43	–	–	–	–

Conditions	drug sensitivity score	relative viability EC50 [µM]
Caco-2 [6]	–	> 10
Caco-2 [12]	0.6	–
Calu-3 [11]	1.8	–
HepG2 [9]	1.2	–
U2OS [7]	–	> 10
U2OS [13]	0.3	–
Vero E6 [4]	–	> 10
Vero E6 [10]	0	–

COC(=O)[C@]12CCC(C)(C)C[C@H]1[C@H]1C(=O)C=C3[C@@]4(C)C=C(C#N)C(=O)C(C)(C)[C@@H]4CC[C@@]3(C)[C@]1(C)CC2 [Bardoxolone Methyl]
A549-ACE2 [1], 0.3 µM
Conditions	drug-induced phospholipidosis [%]
24 h	0.65
48 h	2.45
72 h	7

Conditions	SARS-CoV-2 infection rate, [19] [%]	cell count, [2] [%]	cell viability, Caco-2 [17] [%]	cell viability, Calu-3 [16] [%]	cell viability, HepG2 [14] [%]	cell viability, U2OS [18] [%]	cell viability, Vero E6 [15] [%]	morphology score, [8]
1 nM	–	–	86.4	107	94.7	101	98.6	–
10 nM	–	–	88.7	124	107	96.7	107	–
100 nM	–	–	85.9	117	87.4	96.6	92.3	–
0.3 µM	98	97	–	–	–	–	–	0.09
1000 nM	–	–	14.1	12.8	4	0.1	5.5	–
3 µM	61	5	–	–	–	–	–	-0.03
10000 nM	–	–	-0.2	0	-0.2	-0.3	-0.3	–

Conditions	drug sensitivity score	relative viability EC50 [µM]
Caco-2 [6]	–	0.313
Caco-2 [12]	17.5	–
Calu-3 [5]	–	0.503
Calu-3 [11]	15.4	–
HepG2 [9]	19.4	–
HepG2 [20]	–	0.239
U2OS [7]	–	0.292
U2OS [13]	18.4	–
Vero E6 [4]	–	0.293
Vero E6 [10]	18.3	–

CC(C)(C)c1ccc(-c2nc3ccccc3[nH]2)cc1 [ZLN005]
drug-induced phospholipidosis [%], A549-ACE2 [1]
Conditions	0.3 µM	0.833333 µM	3.33333 µM	6.66667 µM	10 µM	30 µM
24 h	3.54	-4.68	-5.18	-7.34	-8.03	-10.2
48 h	4.21	-3.33	-5.71	-7.4	-10.6	-12.3
72 h	2.86	-4.87	-1.84	-5.31	-5.63	-6.24

Conditions	SARS-CoV-2 infection rate, [19] [%]	cell count, [2] [%]	cell viability, Caco-2 [17] [%]	cell viability, Calu-3 [16] [%]	cell viability, HepG2 [14] [%]	cell viability, U2OS [18] [%]	cell viability, Vero E6 [15] [%]	morphology score, [8]
1 nM	–	–	91.8	87.7	94.6	101	92.8	–
10 nM	–	–	99.8	94.1	98.2	94.2	98.6	–
100 nM	–	–	97.1	105	96.2	97.7	94.1	–
0.3 µM	99	98	–	–	–	–	–	0.14
1000 nM	–	–	84	88.1	96.6	90.7	92.7	–
3 µM	87	113	–	–	–	–	–	0.37
10 µM	57	115	–	–	–	–	–	0.7
10000 nM	–	–	49.4	49.4	77.4	78.4	81.6	–
30 µM	32	110	–	–	–	–	–	0.77

Conditions	drug sensitivity score	relative viability EC50 [µM]
Caco-2 [6]	–	1.4
Caco-2 [12]	4.9	–
Calu-3 [5]	–	1.6
Calu-3 [11]	4.6	–
HepG2 [9]	1.3	–
HepG2 [20]	–	> 10
U2OS [7]	–	> 10
U2OS [13]	1.3	–
Vero E6 [4]	–	> 10
Vero E6 [10]	0.6	–
